Reference: patent US4223034A, “Aniline derivatives” (Beecham Group Limited, priority 1977, dated 1980)
Where two headings read alike, the source gives them in different places.

Key:
[1] = in vivo; conditions: sc
[2] = tested on: amphetamine induced stereotypy; test: amphetamine stereotype test (antagonism of amphetamine induced stereotypy); assay type: in vivo, rats; conditions: for ED50: Rattus norvegicus, sc
[3] = tested on: catalepsy
[4] = anti-catepressan test; assay type: in vivo; conditions: per oral
Protocol: (§1) a. […] On the anti-catepressan test [based on Costal et al, Europ. […] The LD50 of the compound of Example 3 is about 500 mg/kg per oral in the mouse.

[5] = in vivo; conditions: mouse, po
Protocol: as §1

[6] = S.C., Table 1, read-out: ED50, antagonism of amphetamine induced stereotypy

| SMILES | ED50 [1] | ED50 [2, 6] | Ratio catalepsy / anti-sterotypy ([3]; ratio of ED50 values S.C., Table 1) | propensity to induce catalepsy relative to anti-stereotypy activity (in words) ([3]; in vivo) | Ratio catalepsy / anti-sterotypy ([3]; in vivo, sc) | ED50 [4] | LD50 [5] | ED50 ([2]; rats, administered sub-cutaneously, read-out: ED50, amphetamine stereotype test) | anti-psychotic or neuroleptic activity (in words) ([2]; as judged by amphetamine induced stereotypy test) |
| --- | --- | --- | --- | --- | --- | --- | --- | --- | --- |
| O=C(CCCN1CCC(O)(c2ccc(Cl)cc2)CC1)c1ccc(F)cc1 [Haloperidol, reference compound] | 0.3 mg/kg | 0.05 mg/kg | – | – | – | – | – | – | – |
| CN(C)CCCN1c2ccccc2Sc2ccc(Cl)cc21 [Chlorpromazine, reference compound] | 3 mg/kg | 1 mg/kg | 3 | – | – | – | – | – | – |
| COc1cc(N)c(Cl)cc1NC(=O)C1CCN(Cc2ccccc2)CC1 [Example 3, 5-Amino-4-chloro-2-(1^1-benzylpiperidine-4-carboxamido)-anisole] | 6 mg/kg | 0.2 mg/kg | – | weaker propensity to induce catalepsy | 30 | 5 mg/kg | ~500 mg/kg | 0.2 mg/kg | have anti-psychotic or neuroleptic activity |
